Some test systems named below: A549 NSCLC; HCT-116 colon; HOP-62 NSCLC; M14 melanoma; MCF7 breast; NCI-H460 lung; NCI-H522 lung; OVCAR-4 ovarian; PC-3 prostate; RPMI-8226 leukemia; RXF 393 renal; SK-MEL-2 melanoma; SK-OV-3 ovarian; SW-620 colon; CCRF-CEM leukemia; SR leukemia.
Common to all, as to assay: NCI anticancer screen, dose series, 48 h

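Five compound concentrations were applied to cells in 96-well plates for 48 hours; endpoints were derived by simple linear interpolation of the resulting dose-response curve. TGI denotes the concentration required for complete inhibition of growth.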

As for `C[C@@H]1CCC2C(C)(C)C(/C=C\C=O)C3(C)OC213` (some centres undefined), the TGI with A549 NSCLC was more than 100 µM; in the experiment with HCT-116 colon, 98.2 µM; in the experiment with HOP-62 NSCLC it was more than 100 µM; in the experiment on M14 melanoma, more than 100 µM; in the experiment with MCF7 breast, more than 100 µM; with NCI-H460 lung, more than 100 µM. For the same compound, the TGI with NCI-H522 lung was more than 100 µM; with OVCAR-4 ovarian, more than 100 µM; in the experiment on PC-3 prostate, more than 100 µM; with RPMI-8226 leukemia, 84.5 µM; with RXF 393 renal it was more than 100 µM; with SK-MEL-2 melanoma it was more than 100 µM. For the same compound, the TGI in the experiment with SK-OV-3 ovarian and in the experiment on SW-620 colon was more than 100 µM in each case.

For the compound `CCOc1ccc(/C=C(\Cl)c2ccc(OC)cc2)cc1`, the TGI with A549 NSCLC, with CCRF-CEM leukemia, in the experiment with HCT-116 colon, with HOP-62 NSCLC, in the experiment with M14 melanoma and in the experiment with NCI-H522 lung was more than 100 µM in each case. The TGI in the experiment on OVCAR-4 ovarian, in the experiment on RPMI-8226 leukemia, in the experiment on RXF 393 renal, in the experiment on SK-OV-3 ovarian, in the experiment on SR leukemia and in the experiment on SW-620 colon was more than 100 µM throughout.

Turning to `Cc1ccc(NC(=O)CSc2nnc(Cc3ccccc3)o2)cc1`, the TGI in the experiment with A549 NSCLC, with CCRF-CEM leukemia, in the experiment with HCT-116 colon, in the experiment with HOP-62 NSCLC, with M14 melanoma and with NCI-H460 lung was more than 100 µM throughout. Further, the TGI in the experiment with NCI-H522 lung, in the experiment with OVCAR-4 ovarian, in the experiment on RPMI-8226 leukemia, in the experiment on RXF 393 renal, with SK-MEL-2 melanoma and with SK-OV-3 ovarian was more than 100 µM in each case. For the same compound, in the experiment with SW-620 colon, the TGI is more than 100 µM.

Turning to `CC12C(=C(C#N)C(=N)N1c1ccc(Cl)c(Cl)c1)C=C(O)CC2SCCS(=O)(=O)O` (centres undefined), the TGI in the experiment on A549 NSCLC, in the experiment on CCRF-CEM leukemia, in the experiment on HCT-116 colon, in the experiment on HOP-62 NSCLC, in the experiment on NCI-H522 lung and in the experiment with OVCAR-4 ovarian was more than 100 µM in each case. Moreover, the TGI was more than 100 µM in the experiment on RPMI-8226 leukemia; 94.7 µM in the experiment with RXF 393 renal; more than 100 µM with SK-MEL-2 melanoma; more than 100 µM in the experiment with SK-OV-3 ovarian; more than 100 µM in the experiment on SR leukemia; more than 100 µM in the experiment with SW-620 colon.

Turning to `N#C/C(=C\c1cc(O)ccc1O)C(N)=O`, the TGI in the experiment with A549 NSCLC is more than 100 µM; in the experiment with CCRF-CEM leukemia it was 53.9 µM; with HCT-116 colon it was more than 100 µM; in the experiment on HOP-62 NSCLC, more than 100 µM; in the experiment with M14 melanoma, more than 100 µM; with NCI-H460 lung, more than 100 µM. Also, the TGI in the experiment with NCI-H522 lung is 41 µM; with OVCAR-4 ovarian, more than 100 µM; in the experiment on RPMI-8226 leukemia, 65.6 µM; in the experiment with RXF 393 renal, 86.6 µM; with SK-MEL-2 melanoma, more than 100 µM; in the experiment on SK-OV-3 ovarian it was more than 100 µM. In the experiment on SW-620 colon, this compound showed a TGI of more than 100 µM.

For `C[C@@H]1OC2(O)[C@H]3CCCN3S(=O)(=O)CCN2C1=O` (some centres undefined), the TGI with A549 NSCLC, with CCRF-CEM leukemia, in the experiment on HCT-116 colon, in the experiment on HOP-62 NSCLC, in the experiment on M14 melanoma and in the experiment on NCI-H460 lung was more than 100 µM throughout. The TGI with NCI-H522 lung, in the experiment with OVCAR-4 ovarian, in the experiment with RPMI-8226 leukemia, in the experiment on RXF 393 renal, with SK-OV-3 ovarian and with SR leukemia was more than 100 µM each time. The TGI in the experiment with SW-620 colon is more than 100 µM.

As for `CCN(CC)CCC1(C2CCCCC2)CCC(=O)NC1=O` (centres undefined), the TGI in the experiment on A549 NSCLC, in the experiment on CCRF-CEM leukemia, in the experiment on HCT-116 colon, in the experiment on HOP-62 NSCLC, with M14 melanoma and in the experiment with NCI-H460 lung was more than 100 µM throughout. Further, the TGI in the experiment on NCI-H522 lung, with OVCAR-4 ovarian, in the experiment on RPMI-8226 leukemia, in the experiment on RXF 393 renal, with SK-MEL-2 melanoma and in the experiment with SK-OV-3 ovarian was more than 100 µM throughout. This compound also registered a TGI in the experiment on SW-620 colon of more than 100 µM.

For the compound `CCCCNC(=NCc1ccccc1)NC#N`, the TGI with A549 NSCLC, with CCRF-CEM leukemia, with HCT-116 colon, with HOP-62 NSCLC, in the experiment with M14 melanoma and with NCI-H460 lung was more than 100 µM throughout. Besides, the TGI in the experiment on NCI-H522 lung, in the experiment on OVCAR-4 ovarian, in the experiment on RPMI-8226 leukemia, in the experiment on SK-MEL-2 melanoma, with SK-OV-3 ovarian and in the experiment with SR leukemia was more than 100 µM throughout. The TGI in the experiment on SW-620 colon is more than 100 µM.

Consider `C#CCNC(=O)NCCCCC(NC(C)=O)C(=O)NCc1ccccc1` (centres undefined), for which the TGI in the experiment on A549 NSCLC, in the experiment with CCRF-CEM leukemia, in the experiment with HCT-116 colon, in the experiment with HOP-62 NSCLC, with M14 melanoma and in the experiment with NCI-H460 lung was more than 100 µM throughout. In addition, the TGI in the experiment with NCI-H522 lung, with OVCAR-4 ovarian, with RPMI-8226 leukemia, with RXF 393 renal, in the experiment on SK-OV-3 ovarian and in the experiment on SR leukemia was more than 100 µM each time. Further, the TGI in the experiment with SW-620 colon was more than 100 µM.

On to `COc1ccccc1-n1c(NN)nc2ccc(Br)cc2c1=O`, for which the TGI is more than 100 µM in the experiment with A549 NSCLC; more than 100 µM with CCRF-CEM leukemia; more than 100 µM with HOP-62 NSCLC; more than 100 µM with M14 melanoma; more than 100 µM with NCI-H460 lung; 63.2 µM with NCI-H522 lung. Further, the TGI with OVCAR-4 ovarian was more than 100 µM; in the experiment with RPMI-8226 leukemia, more than 100 µM; in the experiment with RXF 393 renal, more than 100 µM; in the experiment on SK-MEL-2 melanoma it was more than 100 µM; in the experiment with SK-OV-3 ovarian it was 99.3 µM; in the experiment with SR leukemia, more than 100 µM. In addition, in the experiment on SW-620 colon, the TGI was more than 100 µM.

(Values after PubChem BioAssay (NCI).)
